Source: publication PMC3830801, “Synthesis and Biological Evaluation of 2-Hydroxy-3-[(2-aryloxyethyl)amino]propyl 4-[(Alkoxycarbonyl)amino]benzoates” (The Scientific World Journal, 2013)

Assays:
[1] = system: human monocytic leukaemia THP-1 cell line; test: In vitro cytotoxicity assay (WST-1); type: cell-based; settings: 24 h; for increase in LD50 relative to cytotoxicity: human, 30 μmol/L
Experimental: The human monocytic leukaemia THP-1 cell line was purchased from the European Collection of Cell Cultures (ECACC, Salisbury, UK). […] Cells were passaged at approximately one-week intervals. […] The maximum concentration of DMSO in the assays never exceeded 0.1%. Cytotoxicity of the compounds was determined using a WST-1 assay kit (Roche Diagnostics, Mannheim, Germany), as described previously. The median lethal dose values, LD50, were deduced through the production of a dose-response curve. All data from three independent experiments were evaluated using GraphPad Prism 5.00 software (GraphPad Software, San Diego, CA, USA, http://www.graphpad.com).

[2] = Lipophilicity determination by HPLC (capacity factor k / log k); type: physicochemical; settings: RP-HPLC, C18, MeOH 55%/H2O 45%
From the text: A Waters Alliance 2695 XE HPLC separation module and a Waters Photodiode Array Detector 2996 (Waters Corp., Milford, MA, USA) were used. A Symmetry C18 5 μm, 4.6 × 250 mm, part number WAT054275 (Waters Corp., Milford, MA, USA) chromatographic column was used. The HPLC separation process was monitored by Empower 2 Chromatography Data Software, Waters 2009 (Waters Corp., Milford, MA, USA). A mixture of MeOH p.a. (55%) and H2O-HPLC–Milli-Q Grade (45%) was used as a mobile phase. The total flow of the column was 1.0 mL/min, injection volume 30 μL, column temperature 45°C, and sample temperature 10°C. The detection wavelength of 210 nm was chosen. The KI methanolic solution was used for the dead time (t D) determination. Retention times (t R) were measured in minutes. The capacity factors k were calculated using the Empower 2 Chromatography Data Software according to formula k = (t R − t D)/t D, where t R is the retention time of the solute, whereas t D denotes the dead time obtained using an unretained analyte. logk, calculated from the capacity factor k, is used as the lipophilicity index converted to logP scale.

[3] = pKa determination by RP-HPLC; type: physicochemical; settings: from retention factor vs pH of mobile phase, recalculated for water medium
[4] = system: Mycobacterium avium subsp. paratuberculosis CIT03; test: In vitro antimycobacterial evaluation (alamarBlue, MIC); type: cell-based; settings: Mycobacterium avium, 264 h; MIC/IC90, 11 days incubation, 37°C
Experimental: (§1) Clinical isolates of Mycobacterium avium subsp. paratuberculosis CIT03 and M. intracellulare were grown in Middlebrook broth (MB), supplemented with oleic-albumin-dextrose-catalase supplement (OADC, Becton Dickinson, UK) and mycobactin J (2 μg/mL). Identification of these isolates was performed using biochemical and molecular protocols. At log phase growth, the culture (10 mL) was centrifuged at 15,000 rpm/20 min using a bench top centrifuge (Model CR 4–12, Jouan Inc., UK). Following the removal of the supernatant, the pellet was washed in fresh Middlebrook 7H9GC broth and resuspended in fresh supplemented MB (10 mL). The turbidity was adjusted to match McFarland standard no. 1 (3 × 10^8 cfu) with MB broth. A further 1 : 20 dilution of the culture was then performed in MB broth. The antimicrobial susceptibility of all four mycobacterial species was investigated in a 96-well plate format. In these experiments, sterile deionised water (300 μL) was added to all outer-perimeter wells of the plates to minimize evaporation of the medium in the test wells during incubation. Each evaluated compound (100 μL) was incubated with each of the mycobacterial species (100 μL). Dilutions of each compound were prepared in duplicate. For all synthesized compounds, final concentrations ranged from 1,000 μg/mL to 8 μg/mL. All compounds were prepared in DMSO, and subsequent dilutions were made in supplemented MB. The plates were sealed with parafilm and incubated at 37°C, for 7 days in the case of M. intracellulare and 11 days in the case of M. avium paratuberculosis. Following incubation, a 10% addition of alamarBlue (AbD Serotec) was mixed with each well, and readings at 570 nm and 600 nm were taken, initially for background subtraction and subsequently after 24 h reincubation. […] For noninterfering compounds, a blue colour in the well was interpreted as an absence of growth, and a pink colour was scored as growth. The MIC was initially defined as the lowest concentration which prevented a visual colour change from blue to pink. […] The MIC/IC90 value is routinely and widely used in bacterial assays and is a standard detection limit according to the Clinical and Laboratory Standards Institute (CLSI, http://www.clsi.org/).

[5] = system: Mycobacterium intracellulare; test: as above; type: cell-based; settings: Mycobacterium intracellulare, 168 h; MIC/IC90, 7 days incubation, 37°C
Experimental: as §1

[6] = system: spinach chloroplasts; test: Photosynthetic electron transport (PET) in spinach chloroplasts (DCPIP photoreduction); type: biochemical, Spinacia oleracea L.; settings: DMSO 8% v/v
Experimental: Chloroplasts were prepared from spinach (Spinacia oleracea L.) according to Masarovičová and Král'ová [38]. The inhibition of photosynthetic electron transport (PET) in spinach chloroplasts was determined spectrophotometrically (Genesys 6, Thermo Scientific, USA), using an artificial electron acceptor 2,6-dichlorophenol-indophenol (DCIPP) according to Král'ová et al., and the rate of photosynthetic electron transport was monitored as a photoreduction of DCPIP. The measurements were carried out in phosphate buffer (0.02 mol/L, pH 7.2) containing sucrose (0.4 mol/L), MgCl2 (0.005 mol/L), and NaCl (0.015 mol/L). The chlorophyll content was 30 mg/L in these experiments, and the samples were irradiated (~100 W/m^2 with 10 cm distance) with a halogen lamp (250 W) using a 4 cm water filter to prevent warming of the samples (suspension temperature 22°C). The studied compounds were dissolved in DMSO due to their limited water solubility, and the concentration of DMSO was constant (8% (v/v)) in control as well as in amphiphile-treated samples.

Which LD50 ([1]; THP-1 cells, highest dose 30 μmol/L) does the source give for `CC[C@@]1(O)C(=O)OCc2c1cc1n(c2=O)Cc2cc3ccccc3nc2-1` [camptothecin, reference compound] here?
The LD50 was 0.16 ± 0.07 µmol/L.

With `CCCOC(=O)Nc1ccc(C(=O)OCC(O)CNCCOc2ccc(OC)cc2)cc1.Cl` (stereo not drawn) [Compound 20c, 2-Hydroxy-3-[2-(4-methoxyphenoxy)ethylamino]-propyl 4-(Propoxycarbonylamino)benzoate Hydrochloride] as the compound, how does the Log k [2] read?
Its Log k is 0.4108.

What about the pKa [3] of the same compound?
Its pKa is 7.99.

And the MIC [4]?
Its MIC is 259 µM.

And the MIC [5]?
The MIC was 259 µM.

And the “effect on the rate of PET (in words)” value [6]?
The value was “relatively strong PET stimulation”.

For `CCCOC(=O)Nc1ccc(C(=O)OCC(O)CNCCOc2ccccc2OC)cc1.Cl` (stereo not drawn) [Compound 19c, 2-Hydroxy-3-[2-(2-methoxyphenoxy)ethylamino]-propyl 4-(Propoxycarbonylamino)benzoate Hydrochloride], which Log k [2] is on record?
Its Log k is 0.4089.

What about the pKa [3] of the same compound?
The pKa was 8.67.

What about the MIC [4] of the same compound?
The MIC was 64 µM.

What about the MIC [5] of the same compound?
Its MIC is 259 µM.

What about the “effect on the rate of PET (in words)” value [6] of the same compound?
Its value is “relatively strong PET stimulation”.

With `CCCCOC(=O)Nc1ccc(C(=O)OCC(O)CNCCOc2ccccc2F)cc1.Cl` (stereo not drawn) [Compound 22d, 3-[2-(2-Fluorophenoxy)ethylamino]-2-hydroxypropyl 4-(Butoxycarbonylamino)benzoate Hydrochloride] as the compound, how does the Log k [2] read?
Its Log k is 0.4341.

And the pKa [3]?
Its pKa is 7.96.

And the MIC [4]?
Its MIC is 124 µM.

What about the MIC [5] of the same compound?
The MIC was 124 µM.

What about the “effect on the rate of PET (in words)” value [6] of the same compound?
Its value is “significantly stimulated the rate of PET”.

For `COC(=O)Nc1ccc(C(=O)OCC(O)CNCCOc2ccc(OC)cc2)cc1.Cl` (stereo not drawn) [Compound 20a, 2-Hydroxy-3-[2-(4-methoxyphenoxy)ethylamino]-propyl 4-(Methoxycarbonylamino)benzoate Hydrochloride], which Log k [2] is on record?
Its Log k is 0.3881.

What about the pKa [3] of the same compound?
Its pKa is 8.25.

And the MIC [4]?
The MIC was 550 µM.

And the MIC [5]?
The MIC was 550 µM.

With `CCOC(=O)Nc1ccc(C(=O)OCC(O)CNCCOc2ccc(F)cc2)cc1.Cl` (stereo not drawn) [Compound 23b, 3-[2-(4-Fluorophenoxy)ethylamino]-2-hydroxypropyl 4-(Ethoxycarbonylamino)benzoate Hydrochloride] as the compound, how does the Log k [2] read?
Its Log k is 0.4032.

What about the pKa [3] of the same compound?
Its pKa is 8.09.

And the MIC [4]?
Its MIC is 547 µM.

And the MIC [5]?
The MIC was 547 µM.

With `CCOC(=O)Nc1ccc(C(=O)OCC(O)CNCCOc2ccccc2OC)cc1.Cl` (stereo not drawn) [Compound 19b, 2-Hydroxy-3-[2-(2-methoxyphenoxy)ethylamino]-propyl 4-(Ethoxycarbonylamino)benzoate Hydrochloride] as the compound, how does the Log k [2] read?
Its Log k is 0.3976.

And the pKa [3]?
The pKa was 8.9.

And the MIC [4]?
The MIC was 128 µM.

And the MIC [5]?
The MIC was 533 µM.

With `CCCCOC(=O)Nc1ccc(C(=O)OCC(O)CNCCOc2ccc(OC)cc2)cc1.Cl` (stereo not drawn) [Compound 20d, 2-Hydroxy-3-[2-(4-methoxyphenoxy)ethylamino]-propyl 4-(Butoxycarbonylamino)benzoate Hydrochloride] as the compound, how does the Log k [2] read?
Its Log k is 0.4241.

What about the pKa [3] of the same compound?
Its pKa is 8.18.

And the MIC [4]?
The MIC was 62 µM.

And the MIC [5]?
The MIC was 121 µM.

And the “effect on the rate of PET (in words)” value [6]?
The value was “significantly stimulated the rate of PET”.

With `CCCCOC(=O)Nc1ccc(C(=O)OCC(O)CNCCOc2ccc(F)cc2)cc1.Cl` (stereo not drawn) [Compound 23d, 3-[2-(4-Fluorophenoxy)ethylamino]-2-hydroxypropyl 4-(Butoxycarbonylamino)benzoate Hydrochloride] as the compound, how does the Log k [2] read?
The Log k was 0.4365.

And the pKa [3]?
The pKa was 8.08.

And the MIC [4]?
The MIC was 64 µM.

And the MIC [5]?
The MIC was 258 µM.

What about the “effect on the rate of PET (in words)” value [6] of the same compound?
Its value is “significantly stimulated the rate of PET”.

What about the “increase in LD50 relative to cytotoxicity” value [1] of the same compound?
Its value is 96%.

With `CCCCOC(=O)Nc1ccc(C(=O)OCC(O)CNCCOc2c(OC)cccc2OC)cc1.Cl` (stereo not drawn) [Compound 21d, 2-Hydroxy-3-[2-(2,6-dimethoxyphenoxy)ethylamino]-propyl 4-(Butoxycarbonylamino)benzoate Hydrochloride] as the compound, how does the Log k [2] read?
Its Log k is 0.4177.

And the pKa [3]?
Its pKa is 8.58.

What about the MIC [4] of the same compound?
The MIC was 59 µM.

What about the MIC [5] of the same compound?
Its MIC is 114 µM.

What about the “effect on the rate of PET (in words)” value [6] of the same compound?
The value was “significantly stimulated the rate of PET”.

What about the “increase in LD50 relative to cytotoxicity” value [1] of the same compound?
Its value is 61%.

For `CCOC(=O)Nc1ccc(C(=O)OCC(O)CNCCOc2ccccc2F)cc1.Cl` (stereo not drawn) [Compound 22b, 3-[2-(2-Fluorophenoxy)ethylamino]-2-hydroxypropyl 4-(Ethoxycarbonylamino)benzoate Hydrochloride], which Log k [2] is on record?
The Log k was 0.4011.

And the pKa [3]?
Its pKa is 7.99.

What about the MIC [4] of the same compound?
The MIC was 547 µM.

What about the MIC [5] of the same compound?
Its MIC is 547 µM.

Which Log k [2] does the source give for `CCCCOC(=O)Nc1ccc(C(=O)OCC(O)CNCCOc2ccccc2OC)cc1.Cl` (stereo not drawn) [Compound 19d, 2-Hydroxy-3-[2-(2-methoxyphenoxy)ethylamino]-propyl 4-(Butoxycarbonylamino)benzoate Hydrochloride] here?
The Log k was 0.4228.

What about the pKa [3] of the same compound?
The pKa was 8.73.

What about the MIC [4] of the same compound?
The MIC was 62 µM.

What about the MIC [5] of the same compound?
Its MIC is 201 µM.

And the “effect on the rate of PET (in words)” value [6]?
The value was “significantly stimulated the rate of PET”.
